Measured values published in patent publication US10806726B2, “Methods of using indazole-3-carb oxamides and their use as Wnt/B-catenin signaling pathway inhibitors” (Samumed, LLC, priority 2016, dated 2020).

Key:
KC/GRO in plasma = experiment: Rat Tendinopathy Model (1), plasma biomarker KC/GRO; assay type: in vivo
Procedure: Fifty (50 μl) of Collagenase Type IA (10 mg/ml in PBS, pH 7.4, approximately 469 units/mg) (Catalog # C5138, Sigma, St. Louis, Mo.) was injected into the Achilles tendon of both ankles near the osteotendinous junction of male Sprague Dawley CD® IGS rats (CRL, Inc.), using insulin syringes with 28.5 G needle.
[…] […] All rats were periodically observed for any pain, illnesses or abnormalities. At various time points, blood was collected for plasma in lithium heparin coated tubes by saphenous vein bleeding. For histology, rats were euthanized using isoflurane, tendons were isolated (n=6 tendons/group), fixed in 10% buffered formalin (Catalog # SF93-4, Fisher, Pittsburgh Pa.) and H & E histology staining was performed at a secondary site (Pacific Pathology, San Diego, Calif.). For biochemical analysis, tendons were isolated (n=4 tendons/group), flash frozen in liquid nitrogen and then stored at −80° C. for subsequent biochemical analysis (not reported).
Following manufacturer's instructions, KC/GRO plasma levels were determined using the KC/GRO Immunoassay kit (Catalog#900-K57, Peprotech, Rocky Hill, N.J.). Briefly, 96-well plates were coated with the anti-rat KC/GRO capture antibody overnight and washed to remove excess antibody. Plasma samples were incubated in the coated plates for 2 hours at room temperature. Following washes to remove unbound proteins, biotinylated anti-rat KC/GRO detection antibody was added and incubated for 30 mins at room temperature. Following washes to remove unbound excess antibody, avidin-HRP was added and incubated for 30 mins at room temperature. Following washes to remove unbound Avidin-HRP, the ABTS substrate was added and the plates were read on the Cytation 3 plate reader (Biotek Inc., Winooski, Vt.) at an absorbance of 525 nm with correction at 450 nm. All samples were processed in triplicate.
In this study, a total of 64 sections were scored for Group 1 (sham injection group) and approximately 96 sections each for Group 2 (Collagenase-Vehicle), Group 3 (Collagenase-compound 175 with BA preservative) group and Group 4 (Collagenase-compound 175 without preservative). To determine statistical significance between groups, student's t-test was performed with p<0.05 considered as significant for histology scoring and biomarker assay.

[1] = tested on: TNFα production in THP-1 cells; experiment: Cytokine Production Assay, LPS-induced TNFα in THP-1 cells; assay type: cell-based; conditions: Homo sapiens; THP-1, LPS 50 ng/mL 5 hours, 2 independent assays; read-out: average EC50, inhibition of TNFα production
Procedure: THP-1 cells were cultured in basal media with 1% FBS for 24 hours before the start of the assay. THP-1 cells were plated at 6×10e^4 cells/well and treated with DMSO (vehicle control) or compound 175 at 10 μM highest test concentration and 2 to 3.5-fold serial dilutions up to 8 concentrations (10, 3.5, 1, 0.5, 0.1, 0.035, 0.01, 0.005 μM). For the TNFα assay, 50 ng/mL of LPS was added to the wells after 2 hours to induce cytokine production, and cells were incubated for 5 hours at 37° C. For the IL6 assay, 500 ng/ml of LPS was added after 2 hours and cells were incubated for 22 hours at 37° C. Plates were spun in a centrifuge for 1 minute at 10,000 rpm and supernatants were collected for ELISA. Supernatants were diluted 1:1 for the TNFα assay and 1:4 for the IL6 assay using the assay medium. ELISA was performed using Human TNF-α ELISA MAX™ Deluxe (Catalog #430204, Biolegend, San Diego, Calif.) and Human IL-6 ELISA MAX™ Deluxe (Catalog #430504, Biolegend, San Diego, Calif.) kits. […] Following several washes to remove unbound avidin-HRP, the TMB substrate was added and the plates were read on the Cytation 3 plate reader (Biotek Inc., Winooski, Vt.) at an absorbance of 450 nm with correction at 570 nm. […] Inhibition profile and EC50 was calculated using Prism 5 (GraphPad Software Inc, La Jolla, Calif., USA). […]

[2] = tested on: Wnt responsive promoter linked to luciferase gene in SW480 cells; experiment: Wnt Reporter Assay, SW480, 48 hours (Example 10); assay type: cell-based; conditions: Homo sapiens, 10-0.0003 μM, read-out: EC50, inhibition of Wnt pathway activity
Procedure: SW480 cells (ATCC) were cultured in Dulbecco's modified Eagle's medium (DMEM, ThermoFisher) with 1% Glutamax (Life Technologies), 1% Penicillin-Streptomycin (Life Technologies), 150 ug/ml Hygromycin (Life Technologies) with 10% fetal bovine serum (FBS) (Hyclone) at 37° C., 5% CO2.
Wnt Reporter Assay. Human colorectal cancer cell line SW480, stably expressing the Wnt responsive promoter linked to luciferase gene, was plated overnight at 4×10e^4 cells/well in DMEM, high glucose, no glutamine, no phenol red (Life Technologies), 1% Glutamax (Life Technologies), 1% Sodium Pyruvate (Life Technologies), 1% Penicillin-Streptomycin (Life Technologies) with 1% Fetal Bovine Serum (Hyclone). Cells were then treated with DMSO (vehicle control) or COMPOUND 175 at 10 μM top concentration and half a log dilution up to 10 concentrations (10, 3, 1, 0.3, 0.1, 0.03, 0.01, 0.003, 0.001 and 0.0003 μM). Cells were incubated for 48 hours at 37° C. 15 μl of Bright-Glo (Bright-Glo™ Luciferase Assay System, Promega) was added to the cells and luminescence was measured using the Cytation 3 plate reader (Biotek). Data was normalized using the DMSO control and inhibition profile and EC50 was calculated using Prism 4 (GraphPad Software Inc, La Jolla, Calif., USA). Prism 4.0 was used to calculate the EC50 of the Wnt reporter inhibition assay.

`COc1ccc(NC(=O)c2n[nH]c3ccc(-c4cncc(CN5CCCCC5)c4)cc23)cn1` [compound 175, N-(6-Methoxypyridin-3-yl)-5-(5-(piperidin-1-ylmethyl)pyridin-3-yl)-1H-indazole-3-carboxamide] was tested, and the “plasma KC/GRO vs vehicle” value (KC/GRO in plasma; 10 mg/mL with or without BA preservative) was “significantly decreased the levels of KC/GRO in plasma”, the “Plasma KC/GRO Concentration” value (KC/GRO in plasma; Day 0, Group 3, 10 mg/mL with 0.5% BA) was 332 ± 51.3 pg/mL and the “Plasma KC/GRO Concentration” value (KC/GRO in plasma; Day 0, Group 4, 10 mg/mL without BA, with 0.5% Tween 80) was 530 ± 31.4 pg/mL. The “Plasma KC/GRO Concentration” value (KC/GRO in plasma; Day 1, Group 3, 10 mg/mL with 0.5% BA) was 521 ± 23.9 pg/mL, the “Plasma KC/GRO Concentration” value (KC/GRO in plasma; Day 1, Group 4, 10 mg/mL without BA, with 0.5% Tween 80) was 637 ± 120 pg/mL and the “Plasma KC/GRO Concentration” value (KC/GRO in plasma; Day 3, Group 3, 10 mg/mL with 0.5% BA) was 813 ± 61.4 pg/mL. For the same molecule, the “Plasma KC/GRO Concentration” value (KC/GRO in plasma; Day 3, Group 4, 10 mg/mL without BA, with 0.5% Tween 80) was 541 ± 58.9 pg/mL, the “Plasma KC/GRO Concentration” value (KC/GRO in plasma; Day 5, Group 3, 10 mg/mL with 0.5% BA) was 480 ± 48.7 pg/mL and the “Plasma KC/GRO Concentration” value (KC/GRO in plasma; Day 5, Group 4, 10 mg/mL without BA, with 0.5% Tween 80) was 410 ± 86.0 pg/mL. The “Plasma KC/GRO Concentration” value (KC/GRO in plasma; Day 7, Group 3, 10 mg/mL with 0.5% BA) was 421 ± 57.2 pg/mL, the “Plasma KC/GRO Concentration” value (KC/GRO in plasma; Day 7, Group 4, 10 mg/mL without BA, with 0.5% Tween 80) was 451 ± 76.6 pg/mL and the “Plasma KC/GRO Concentration” value (KC/GRO in plasma; Day 14, Group 3, 10 mg/mL with 0.5% BA) was 400 ± 10.3 pg/mL. The “Plasma KC/GRO Concentration” value (KC/GRO in plasma; Day 14, Group 4, 10 mg/mL without BA, with 0.5% Tween 80) was 424 ± 76.2 pg/mL, the “Plasma KC/GRO Concentration” value (KC/GRO in plasma; Day 21, Group 3, 10 mg/mL with 0.5% BA) was 408 ± 83.3 pg/mL and the “Plasma KC/GRO Concentration” value (KC/GRO in plasma; Day 21, Group 4, 10 mg/mL without BA, with 0.5% Tween 80) was 347 ± 111 pg/mL. For the same molecule, the “plasma KC/GRO levels, range” value (KC/GRO in plasma; Days 5-21, treated group with BA) was 400 to 480 pg/mL, the “plasma KC/GRO levels, range” value (KC/GRO in plasma; Days 5-21, treated group without BA) was 347 to 451 pg/mL and the EC50 [1] was 0.342 to 0.547 µM. It also gave an EC50 [2] of 0.153 µM.
